According to patent publication US20060205031A1, “Newly identified cholinephosphotransferases and ethanolaminephosphotransferases” (1) Universiteit Utrecht Holding B.V., priority 2003, published 2006):

Assays:
Mammalian SM synthase [1] = settings: Luberto and Hannun, 1998; cited from earlier work
human SMS2 = target: T1, human SMS2 (Homo sapiens, UniProt Q8NHU3); assay: SM synthase assay on lysates of SMS2-expressing yeast cells; assay type: biochemical
T1 construct: members for which full-length cDNAs could be obtained were cloned into a yeast multicopy, GALL promotor plasmid; His tag (from vector pYES2.1/V5-His-TOPO) (C); made in house; host or cells: Saccharomyces cerevisiae strain IAY11 (unpurified post-nuclear lysate)
T1 sequence (Q8NHU3 1-365): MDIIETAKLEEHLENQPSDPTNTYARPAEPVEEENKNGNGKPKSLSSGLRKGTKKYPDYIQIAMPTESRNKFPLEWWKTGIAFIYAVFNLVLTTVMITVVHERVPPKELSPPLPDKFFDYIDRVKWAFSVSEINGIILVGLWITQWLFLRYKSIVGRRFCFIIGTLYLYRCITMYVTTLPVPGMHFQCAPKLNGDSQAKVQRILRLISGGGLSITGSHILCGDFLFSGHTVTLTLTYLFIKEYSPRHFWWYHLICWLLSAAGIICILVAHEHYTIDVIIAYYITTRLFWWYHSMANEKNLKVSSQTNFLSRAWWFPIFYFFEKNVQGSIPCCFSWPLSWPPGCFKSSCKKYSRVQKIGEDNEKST
Protocol: (§1) CSS-expressing yeast cells were lysed at 100 OD600/ml by bead bashing at 4° C. in RB1 buffer (120 mM K-glutamate, 15 mM KCl, 5 mM NaCl, 2 mM MnCl2, 2 mM MgCl2, 20 mM Hepes-KOH, pH 7.2) containing freshly added protease inhibitors (Holthuis et al., (1998).
(§2) Lysates were centrifuged at 700 g for 10 min at 4° C. and supernatants (0.25 ml per reaction) preincubated with NEM (1 mM) for 10 min at 37° C. The reaction was initiated by addition of 5 nmol of NBD-Cer in 0.1 ml RB1 buffer and incubation continued for 15 min. Lipids were extracted by addition of 1.7 ml chloroform:methanol (1:2.2), dried under N2 and subjected to butanol/water partitioning. Lipids recovered from the butanol phase were separated by one-dimensional TLC for 30 min in solvent I: chloroform/methanol/4.2 M NH4OH (9:7:3, v/v), followed by 30 min in solvent II: chloroform/methanol/acetic acid (45:30:7, v/v). Fluorescent images were recorded on a STORM 860 Imaging Analysis System (Molecular Dynamics, Sunnyvale, Calif.) and analysed with ImageQuant software.

human SMS1 = target: T2, human SMS1 (Homo sapiens, UniProt Q86VZ5); assay: SM synthase assay on lysates of SMS1-expressing yeast cells; assay type: biochemical; set-up: extent of inhibition of SMS1-mediated SM synthesis: dose or concentration left out as unconfirmed
T2 construct: members for which full-length cDNAs could be obtained were cloned into a yeast multicopy, GALL promotor plasmid; His tag (from vector pYES2.1/V5-His-TOPO) (C); made in house; host or cells: Saccharomyces cerevisiae strain IAY11 (unpurified post-nuclear lysate)
T2 sequence (Q86VZ5 1-413): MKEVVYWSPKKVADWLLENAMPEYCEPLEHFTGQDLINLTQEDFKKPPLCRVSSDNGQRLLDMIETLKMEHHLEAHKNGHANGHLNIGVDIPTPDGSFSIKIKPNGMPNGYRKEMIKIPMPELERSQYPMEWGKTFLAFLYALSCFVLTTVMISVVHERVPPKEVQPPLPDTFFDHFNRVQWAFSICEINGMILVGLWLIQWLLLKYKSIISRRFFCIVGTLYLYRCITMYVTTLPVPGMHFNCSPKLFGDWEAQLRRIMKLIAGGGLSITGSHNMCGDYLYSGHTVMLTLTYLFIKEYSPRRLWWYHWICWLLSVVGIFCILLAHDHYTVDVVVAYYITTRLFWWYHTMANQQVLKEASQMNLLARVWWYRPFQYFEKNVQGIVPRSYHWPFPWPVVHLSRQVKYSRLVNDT
Protocol: as §1, §2

yeast-associated SMase = assay: NBD-SM incubated with yeast cell lysates, TLC of reaction products; assay type: biochemical; settings: NEM 1 mM, NBD-SM 1.8 μM, 30 min at 37° C.
Protocol: (§3) FIG. 3. NEM inhibits yeast-associated SMase but not mammalian SM synthase. (A) TLC separation of reaction products generated when NBD-SM (1.8 μM) was incubated with lysates of exponentially grown yeast cells (20 OD600 cells) in the presence (+) or absence (−) of N-ethylmaleimide (NEM; 1 mM). Reactions were in 0.35 ml RB1 buffer containing 1 μg/ml of IPC synthase inhibitor (aureobasidin A) and incubated for 30 min at 37° C. (B) TLC separation of reaction products generated when NBD-ceramide (NBD-Cer; […]) was incubated with lysates of HeLa cells (1/1: 2×10^6 cells; 1/4: 0.5×10^6 cells) in the presence (+) or absence (−) of NEM (1 mM). Reactions were in 0.35 ml PNS buffer, and incubated for 30 min at 37° C. Lipid extraction and TLC analysis were as described in Materials and methods.

mammalian SM synthase [2] = assay: NBD-ceramide incubated with HeLa cell lysates, TLC of reaction products; assay type: biochemical, human; settings: NEM 1 mM, 30 min at 37° C.
Protocol: as §3

Compound	sensitivity of mammalian SM synthase (Mammalian SM synthase [1])	inhibition of SM synthesis (in words) (human SMS2)	sensitivity of SMS2 to the drug relative to SMS1 (human SMS2)	inhibition of SM synthesis (in words) (human SMS1)	extent of inhibition of SMS1-mediated SM synthesis (human SMS1; D609) [%]	effect on yeast-associated SMases (yeast-associated SMase)	effect on mammalian SM synthase (mammalian SM synthase [2])
S=C([S-])OC1CC2CC1C1CCCC21.[K+] (stereo not shown) [D609, O-tricyclo[5.2.1.0^2,6]dec-9-yl dithiocarbonate potassium salt]	sensitive	inhibited SM synthesis in a dose-dependent manner	two-fold less sensitive	inhibited SM synthesis in a dose-dependent manner	50		
CCN1C(=O)C=CC1=O [NEM, N-ethylmaleimide]						potent inhibitor	does not affect
